Results from patent US20110144069A1, “COMPOUNDS FOR TREATING VIRAL INFECTIONS” (priority 2006, published 2011).

Assays:
[1] = test system: mock-infected MT-4 cells; assay: Compound toxicity in mock-infected cells (WST-1 assay); format: cell-based; settings: toxicity measure, host cells; read-out: TC50 (concentration of compound that results in death of 50% of the host cells)
Description: (§1) The HTLV-1 transformed T cell line, MT-4, is highly susceptible to HIV-1 infection. Anti-HIV-1 agents were evaluated in this target cell line by protection from the HIV-induced cytopathic effect. In this assay, viability of both HIV-1 and mock-infected cells was assessed in a colorimetric assay that monitors the ability of metabolically-active cells to reduce the tetrazolium salt WST-1. Cytoprotection by antiviral compounds is indicated by the positive readout of increased WST-1 cleavage.
(§2) Briefly, exponentially growing MT-4 cells were mock-infected or batch-infected with the HIV-1 laboratory strain, NL4-3, at a multiplicity of infection of 0.0005. Following a two hour infection, the cells were washed to remove unbound virus and plated in the presence of increasing concentrations of compound. After four days incubation, cytoprotection in the infected cells and compound toxicity in mock-infected cells were analyzed using the WST-1 assay.

[2] = test system: HIV-1 laboratory strain, NL4-3; assay: MT-4 Cytoprotection Assay (protection from HIV-induced cytopathic effect, WST-1); format: cell-based; settings: Human immunodeficiency virus 1, NL43; representative compounds; read-out: EC50 of less than about 100 nm
Description: MT-4 Cytoprotection Assay
as §1, §2

Structure (SMILES) | CC50 [1] [µM] | EC50 [2] [µM]
C=C(C)[C@@H]1CC[C@]2(C(=O)NCc3ccc(C(=O)O)cc3)CC[C@]3(C)[C@H](CC[C@@H]4[C@@]5(C)CC[C@H](OC(=O)CC(C)(C)C(=O)O)C(C)(C)[C@@H]5CC[C@]43C)[C@@H]12 [Compound 71] | ~7.7 | –
C=C(C)[C@@H]1CC[C@]2(C(=O)NCc3ccccc3C(=O)O)CC[C@]3(C)[C@H](CC[C@@H]4[C@@]5(C)CC[C@H](OC(=O)CC(C)(C)C(=O)O)C(C)(C)[C@@H]5CC[C@]43C)[C@@H]12 [Compound 73] | ~6.3 | –
CC(C)[C@@H]1CC[C@]2(C(=O)NCCC3CCCCC3)CC[C@]3(C)[C@H](CC[C@@H]4[C@@]5(C)CC[C@H](OC(=O)CC(C)(C)C(=O)O)C(C)(C)[C@@H]5CC[C@]43C)[C@@H]12 [Compound 124] | – | < 0.1
